ChEMBL document CHEMBL1201862, “PubChem BioAssay data set” (2004)
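Values below derive from 48-hour exposures of cells grown in 96-well plates, with endpoints linearly interpolated between the two concentrations bracketing the appropriate inhibition level. Here, GI50 denotes the concentration required for 50% inhibition of growth.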 Activity calls are given as the source filed them. Cut-off read from the data, not from the text of the source: active = GI50 up to about 1.1 µM and inactive = higher.

Key:
Test in all cases: NCI-60 cell line screen, 48 h
[1] = tested on: MOLT-4
[2] = tested on: IGROV-1
[3] = tested on: MCF7
[4] = tested on: SK-MEL-5
[5] = tested on: M14
[6] = tested on: EKVX
[7] = tested on: T47D
[8] = tested on: PC-3
[9] = tested on: HOP-62
[10] = tested on: HCT-116
[11] = tested on: OVCAR-3
[12] = tested on: BT-549
[13] = tested on: MDA-MB-231
[14] = tested on: NCI-H522
[15] = tested on: HCC 2998
[16] = tested on: NCI-H226
[17] = tested on: HL-60
[18] = tested on: RPMI-8226

Row | Structure (SMILES) | GI50 [1] | GI50 [2] | GI50 [3] | GI50 [4] | GI50 [5] | GI50 [6] | GI50 [7] | GI50 [8] | GI50 [9] | GI50 [10] | GI50 [11] | GI50 [12] | GI50 [13] | GI50 [14] | GI50 [15] | GI50 [16] | GI50 [17] | GI50 [18]
1 | Cn1c(=O)c2c(nc3n(Cc4ccccc4)c(=O)c(Br)cn23)n(C)c1=O | > 100 µM (inactive) | > 100 µM (inactive) | > 100 µM (inactive) | > 100 µM (inactive) | > 100 µM (inactive) | > 100 µM (inactive) | > 100 µM (inactive) | > 100 µM (inactive) | 80.5 µM (inactive) | > 100 µM (inactive) | > 100 µM (inactive) | > 100 µM (inactive) | > 100 µM (inactive) | > 100 µM (inactive) | > 100 µM (inactive) | > 100 µM (inactive) | > 100 µM (inactive) | > 100 µM (inactive)
2 | C/C(=N\N=C1/C(=O)OC(c2ccccc2)=C1C(=O)c1ccccc1)c1ccc([N+](=O)[O-])cc1 | 19.9 µM (inactive) | 29.2 µM (inactive) | 26.7 µM (inactive) | 37 µM (inactive) | 65.5 µM (inactive) | 36.3 µM (inactive) | 42.9 µM (inactive) | 65.9 µM (inactive) | > 100 µM (inactive) | 91.4 µM (inactive) | 33.7 µM (inactive) | 25.9 µM (inactive) | 79.3 µM (inactive) | 27.7 µM (inactive) | 47.9 µM (inactive) | 27.8 µM (inactive) | 35.8 µM (inactive) | 21.5 µM (inactive)
3 | Brc1ccc(/C(N=N/C(=N\Sc2ccccc2)c2ccc(Br)cc2)=N/Sc2ccccc2)cc1 | > 100 µM (inactive) | > 100 µM (inactive) | > 100 µM (inactive) | > 100 µM (inactive) | > 100 µM (inactive) | > 100 µM (inactive) | > 100 µM (inactive) | > 100 µM (inactive) | > 100 µM (inactive) | > 100 µM (inactive) | > 100 µM (inactive) | > 100 µM (inactive) | > 100 µM (inactive) | > 100 µM (inactive) | > 100 µM (inactive) | > 100 µM (inactive) | > 100 µM (inactive) | > 100 µM (inactive)
4 | O=C1CSC(c2cccc(Cl)c2)N1c1ccc(-c2ccc(-n3c(-c4ccccc4)nc4ccccc4c3=O)cc2)cc1 (centres undefined) | 20.1 µM (inactive) | 77.4 µM (inactive) | 30.8 µM (inactive) | 25.5 µM (inactive) | 53.6 µM (inactive) | 59 µM (inactive) | 24.3 µM (inactive) | 29.8 µM (inactive) | 67.8 µM (inactive) | 45.6 µM (inactive) | 36 µM (inactive) | 28.5 µM (inactive) | 50.6 µM (inactive) | 41.6 µM (inactive) | 15.1 µM (inactive) | 67 µM (inactive) | 21.8 µM (inactive) | 42.8 µM (inactive)
5 | CC(=O)n1nc(-c2ccccc2)n(/N=C/c2ccc([N+](=O)[O-])o2)c1=O | 3.24 µM (inactive) | 15.9 µM (inactive) | 2.58 µM (inactive) | 7.13 µM (inactive) | 1.94 µM (inactive) | 0.933 µM (active) | 19.9 µM (inactive) | 13.7 µM (inactive) | 4.94 µM (inactive) | 1.47 µM (inactive) | 7.91 µM (inactive) | 8.32 µM (inactive) | 8.34 µM (inactive) | 3.7 µM (inactive) | 4.53 µM (inactive) |  | 3.59 µM (inactive) | 10 µM (inactive)
6 | COc1nc2ncc([C@@H](OC(C)=O)[C@@H](COC(C)=O)OC(C)=O)nc2c(=O)[nH]1 |  | > 100 µM (inactive) | > 100 µM (inactive) | > 100 µM (inactive) | > 100 µM (inactive) | > 100 µM (inactive) | > 100 µM (inactive) | > 100 µM (inactive) | > 100 µM (inactive) | > 100 µM (inactive) | > 100 µM (inactive) | > 100 µM (inactive) | > 100 µM (inactive) |  |  | 51.5 µM (inactive) | > 100 µM (inactive) | > 100 µM (inactive)
7 | COC(=O)c1cc(C)n(CN(Cn2nc(C(=O)OC)cc2C)c2ccccc2)n1 | 13.4 µM (inactive) | 43 µM (inactive) | 28.1 µM (inactive) | 36 µM (inactive) | 32.7 µM (inactive) | > 100 µM (inactive) | 22 µM (inactive) | 28.3 µM (inactive) | 97.3 µM (inactive) | 19.6 µM (inactive) | > 100 µM (inactive) | 31 µM (inactive) | > 100 µM (inactive) | 39 µM (inactive) |  |  | 4.7 µM (inactive) | 17.3 µM (inactive)
8 | Cc1csc2nc(-c3ccc([N+](=O)[O-])cc3)c(/C=N/N=C(N)N)n12 |  | 1.44 µM (inactive) | 1.61 µM (inactive) | 1.91 µM (inactive) | 1.85 µM (inactive) | 1.39 µM (inactive) | 2.79 µM (inactive) | 1.69 µM (inactive) | 1.7 µM (inactive) | 1.81 µM (inactive) | 2.49 µM (inactive) | 0.189 µM (active) | 1.76 µM (inactive) | 1.63 µM (inactive) | < 0.01 µM (active) | 1.73 µM (inactive) | 1.85 µM (inactive) | 2.05 µM (inactive)
9 | Cc1cccc2c(N)c3cccc(C(=O)NCC[N+](C)(C)Cc4sccc4[N+](=O)[O-])c3nc12 | 0.871 µM (active) | 2.71 µM (inactive) | 2.04 µM (inactive) | 5.21 µM (inactive) | 13.8 µM (inactive) | 18.6 µM (inactive) | 36.6 µM (inactive) | 11.9 µM (inactive) | 2.6 µM (inactive) | 12.1 µM (inactive) | 19.5 µM (inactive) | 22 µM (inactive) | 12 µM (inactive) | 2.64 µM (inactive) | 7.69 µM (inactive) | 6.18 µM (inactive) | > 100 µM (inactive) | 
10 | Cc1nc(N)c(N2CCN(S(N)(=O)=O)CC2)c(O)n1 | > 100 µM (inactive) |  | > 100 µM (inactive) |  | > 100 µM (inactive) | > 100 µM (inactive) | > 100 µM (inactive) | > 100 µM (inactive) | > 100 µM (inactive) | > 100 µM (inactive) | > 100 µM (inactive) | > 100 µM (inactive) | > 100 µM (inactive) | > 100 µM (inactive) | > 100 µM (inactive) | > 100 µM (inactive) | > 100 µM (inactive) | > 100 µM (inactive)
11 | Nc1nc2cc(CNc3ccc(C(=O)O)cc3)ccc2nc1-c1ccccc1 | 69.8 µM (inactive) | > 100 µM (inactive) | > 100 µM (inactive) | > 100 µM (inactive) | > 100 µM (inactive) |  | 35.1 µM (inactive) | > 100 µM (inactive) | > 100 µM (inactive) | 69.8 µM (inactive) | > 100 µM (inactive) | > 100 µM (inactive) | > 100 µM (inactive) | > 100 µM (inactive) | > 100 µM (inactive) | > 100 µM (inactive) | > 100 µM (inactive) | > 100 µM (inactive)
12 | CCOC(=O)/C=C/c1cccc(F)c1 | > 100 µM (inactive) | > 100 µM (inactive) | > 100 µM (inactive) |  | > 100 µM (inactive) | > 100 µM (inactive) | > 100 µM (inactive) | > 100 µM (inactive) | > 100 µM (inactive) | > 100 µM (inactive) |  | > 100 µM (inactive) | > 100 µM (inactive) | > 100 µM (inactive) | > 100 µM (inactive) | > 100 µM (inactive) | > 100 µM (inactive) | > 100 µM (inactive)
13 | Cc1c(NC(=O)CSC(=S)N(C)C)c(=O)n(-c2ccccc2)n1C | > 100 µM (inactive) | > 100 µM (inactive) | > 100 µM (inactive) | > 100 µM (inactive) | > 100 µM (inactive) | > 100 µM (inactive) | > 100 µM (inactive) | > 100 µM (inactive) | > 100 µM (inactive) | > 100 µM (inactive) | > 100 µM (inactive) | > 100 µM (inactive) | > 100 µM (inactive) | > 100 µM (inactive) | > 100 µM (inactive) | > 100 µM (inactive) |  | > 100 µM (inactive)
14 | CSC(SC)(C(=O)O)c1cc(-c2c(Cl)cccc2Cl)no1 | 24.5 µM (inactive) | 30.4 µM (inactive) | 70.1 µM (inactive) | 33.7 µM (inactive) | 30.2 µM (inactive) | 54.6 µM (inactive) | 28.4 µM (inactive) | 34 µM (inactive) | 87.5 µM (inactive) | 26.9 µM (inactive) | 55.6 µM (inactive) | 28.8 µM (inactive) | 31.4 µM (inactive) | 28.5 µM (inactive) |  | 25.1 µM (inactive) |  | 16.3 µM (inactive)
15 | CCN(CC)c1ccc(/C=C/C=C2C(=O)NC(=S)NC2=O)cc1 | 4.27 µM (inactive) | > 100 µM (inactive) | 27 µM (inactive) | 37.5 µM (inactive) | 35.4 µM (inactive) | > 62.4 µM (inactive) | > 100 µM (inactive) | > 69.3 µM (inactive) | 15.4 µM (inactive) | 30.9 µM (inactive) | 16.6 µM (inactive) | 13.1 µM (inactive) | 22.9 µM (inactive) |  | 27.2 µM (inactive) | 28.6 µM (inactive) | 2.62 µM (inactive) | > 100 µM (inactive)
16 | COc1ccc(/C=C/c2cc(OC)c(OC)c(OC)c2)cc1O[Si](C)(C)C(C)(C)C | 4.22 µM (inactive) | 8.95 µM (inactive) | 3.6 µM (inactive) | 1.98 µM (inactive) | 5.97 µM (inactive) | 5.81 µM (inactive) | 18.7 µM (inactive) | 4.72 µM (inactive) | 5.93 µM (inactive) | 2.77 µM (inactive) |  | 12.1 µM (inactive) | 5.02 µM (inactive) | 1.87 µM (inactive) | 43.5 µM (inactive) | 5.19 µM (inactive) |  | 0.0494 µM (active)
